molecular target: NSP14 (Severe acute respiratory syndrome coronavirus 2, UniProt P0DTD1); assay: NSP14 MTase inhibition assay at 37° C. (MTase-Glo SAH detection); assay type: biochemical, SARS-CoV-2; settings: 0.3 nM NSP14, 2.5 μM SAM, 2.5 μM GpppA RNA, 45 min at 37° C.; read-out: Nsp14 Mtase Inh. IC50

SMILES | IC50
Cc1c(S(=O)(=O)c2ccc3[nH]ncc3c2)cc(C(=O)N[C@@H]2CCN(c3ccc(C(F)(F)F)cc3)C2)n1C [A.123] | 8.6 nM
Cc1c(S(=O)(=O)c2ccc3[nH]ncc3c2)cc(C(=O)N[C@@H]2CCN(c3ccc(Cl)cn3)C2)n1C [A.44] | < 0.15 nM
Cc1c(S(=O)(=O)c2ccc3c(cnn3C)c2)cc(C(=O)NCc2cccc3cnn(C)c23)n1C [A.12] | 5.6 nM
COc1ncc(N2CC[C@@H](NC(=O)c3cc(S(=O)(=O)c4ccc5[nH]ncc5c4)c(C)n3C)C2)cn1 [A.124] | 0.23 nM
Cc1c(S(=O)(=O)c2ccc3[nH]ncc3c2)cc(C(=O)N[C@@H]2CCN(c3cncnc3)C2)n1C [A.73] | 0.41 nM
Cc1c(S(=O)(=O)c2ccc3c(cnn3C)c2)cc(C(=O)NCc2c(F)ccc3occc23)n1C [A.19] | 21 nM
Cc1c(S(=O)(=O)c2ccc3[nH]ncc3c2)cc(C(=O)N[C@@H]2CCN(c3nccnc3C#N)C2)n1C [A.120] | 0.26 nM
Cc1c(S(=O)(=O)c2ccc3[nH]ncc3c2)cc(C(=O)N[C@@H]2CCN(c3ccn4nccc4c3)C2)n1C [A.60] | 0.28 nM
Cc1c(S(=O)(=O)c2ccc3[nH]ncc3c2)cc(C(=O)N[C@@H]2CCN(c3cnccc3C#N)C2)n1C [A.95] | < 0.15 nM
Cc1c(S(=O)(=O)c2ccc3[nH]ncc3c2)cc(C(=O)N[C@@H]2CCN(c3cnnc(Cl)c3)C2)n1C [A.118] | < 0.15 nM
Cc1c(S(=O)(=O)c2ccc(C(C)O)cc2)cc(C(=O)NCc2cccc3cnn(C)c23)n1C (stereo not drawn) [A.32, 4-[4-(1-hydroxyethyl)phenyl]sulfonyl-1,5-dimethyl-N-[(1-methylindazol-7-yl)methyl]pyrrole-2-carboxamide] | 389 nM
Cc1c(S(=O)(=O)c2ccccc2)cc(C(=O)NCc2c(F)ccc3occc23)n1C [A.20] | 22 nM
COc1ccc(N2CC[C@@H](NC(=O)c3cc(S(=O)(=O)c4ccc5[nH]ncc5c4)c(C)n3C)C2)nn1 [A.88] | < 0.15 nM
Cc1c(S(=O)(=O)c2ccc3[nH]ncc3c2)cc(C(=O)N[C@@H]2CCN(c3cccc(C(F)(F)F)c3)C2)n1C [A.100] | 2.9 nM
Cc1c(S(=O)(=O)c2ccc3[nH]ncc3c2)cc(C(=O)N[C@@H]2CCN(c3ncccc3C#N)C2)n1C [A.37] | < 0.15 nM
Cc1c(S(=O)(=O)c2cc(F)c3[nH]ncc3c2)cc(C(=O)N[C@@H]2CCN(c3ncc(F)cn3)C2)n1C [A.40] | < 0.15 nM

SMILES | IC50
Cc1c(S(=O)(=O)c2ccc3[nH]ncc3c2)cc(C(=O)N[C@@H]2CCN(c3cc(C#N)ccn3)C2)n1C [A.79] | 0.6 nM
Cc1c(S(=O)(=O)c2ccc3[nH]ncc3c2)cc(C(=O)NCc2cccc3cnn(C)c23)n1C [A.3] | 0.35 nM
Cc1c(S(=O)(=O)c2ccc3[nH]ncc3c2)cc(C(=O)NC2(CO)CCN(c3ncc(F)cn3)C2)n1C (single isomer, unassigned) [A.116, 4-((1H-indazol-5-yl)sulfonyl)-N-(1-(5-fluoropyrimidin-2-yl)-3-(hydroxymethyl)pyrrolidin-3-yl)-1,5-dimethyl-1H-pyrrole-2-carboxamide] | 44 nM
Cc1c(S(=O)(=O)c2ccc3[nH]ncc3c2)cc(C(=O)N[C@@H]2CCN(c3ccc(C#N)cc3)C2)n1C [A.57] | 0.57 nM
Cc1c(S(=O)(=O)c2ccc3[nH]ncc3c2)cc(C(=O)N[C@@H]2CCN(c3ccc(F)nn3)C2)n1C [A.53] | 0.36 nM
Cc1c(S(=O)(=O)c2ccc3[nH]ncc3c2)cc(C(=O)N[C@@H]2CCN(c3ccc(C#N)cn3)C2)n1C [A.72] | 0.29 nM
Cc1c(S(=O)(=O)c2cnc3c(cnn3C)c2)cc(C(=O)NCc2cccc3cnn(C)c23)n1C [A.29] | 160 nM
Cc1c(S(=O)(=O)c2ccc3c(cnn3C)c2)cc(C(=O)NCc2c(F)ccc3cnn(C)c23)n1C [A.18] | 18 nM
Cc1c(S(=O)(=O)c2ccc3[nH]ncc3c2)cc(C(=O)N[C@@H]2CCN(c3ccccc3C#N)C2)n1C [A.83] | 0.84 nM
Cc1cc(S(=O)(=O)c2cc(C(=O)NCc3c(F)ccc4occc34)n(C)c2C)cc2cn[nH]c12 [A.1, N-[(5-fluorobenzofuran-4-yl)methyl]-1,5-dimethyl-4-[(7-methyl-1H-indazol-5-yl)sulfonyl]pyrrole-2-carboxamide] | 0.2 nM
Cc1c(S(=O)(=O)c2ccc3[nH]ncc3c2)cc(C(=O)N[C@@H]2CCN(c3ccncn3)C2)n1C [A.93] | 0.2 nM
Cc1c(S(=O)(=O)c2ccc3[nH]ncc3c2)cc(C(=O)N[C@@H]2CCN(c3ccccc3C(F)(F)F)C2)n1C [A.103] | 5.1 nM
Cc1c(S(=O)(=O)c2ccc(C(N)=O)cc2)cc(C(=O)NCc2cccc3cnn(C)c23)n1C [A.21] | 53 nM
Cc1c(S(=O)(=O)c2ccc3[nH]ncc3c2)cc(C(=O)N[C@@H]2CCN(c3ccc(C(F)(F)F)cn3)C2)n1C [A.65] | 1 nM
Cc1c(S(=O)(=O)c2ccc3[nH]ncc3c2)cc(C(=O)N[C@@H]2CCN(c3ncc(F)cn3)C2)n1C [A.34, N-[(3R)-1-(5-fluoropyrimidin-2-yl)pyrrolidin-3-yl]-4-(1H-indazol-5-ylsulfonyl)-1,5-dimethyl-pyrrole-2-carboxamide] | 0.17 nM
Cc1c(S(=O)(=O)c2ccc3occc3c2)cc(C(=O)NCc2c(F)ccc3occc23)n1C [A.14] | 7.7 nM

same assay, conditions: 37° C., 0.3 nM NSP14, 2.5 μM SAM, 2.5 μM GpppA RNA; read-out: Nsp14 Mtase Inh. IC50

SMILES | IC50
Cc1c(S(=O)(=O)c2ccc3[nH]ncc3c2)cc(C(=O)NCc2[nH]c(=O)ccc2F)n1C [B.189] | 0.37 nM
Cc1c(S(=O)(=O)c2ccc3[nH]ncc3c2)cc(C(=O)NCc2c(F)cc(F)c3cnn(C)c23)n1C [B.69] | < 0.15 nM
O=C(O)CCn1ncc2ccc(F)c(CNC(=O)c3cc(S(=O)(=O)c4cc(Cl)c5[nH]ncc5c4)c4n3CCC4)c21 [B.151] | < 0.15 nM
Cc1c(S(=O)(=O)c2cccc(C#N)c2)cc(C(=O)NCc2cccc3ncn(C)c23)n1C [B.4] | 4.9 nM
Cc1c(S(=O)(=O)c2ccc3[nH]ncc3c2)cc(C(=O)NCc2c(F)ccc3ncn(C4CC4)c23)n1C [B.18] | < 0.15 nM
Cc1c(S(=O)(=O)c2ccc3[nH]ncc3c2)cc(C(=O)NCc2cccc3c2N(C)C(=O)C32CC2)n1C [B.32] | 0.18 nM
Cc1c(S(=O)(=O)c2ccc3[nH]ncc3c2)cc(C(=O)NCc2ccnn2C)n1C [B.100] | 12 nM
Cc1c(S(=O)(=O)c2cc3cn[nH]c3cn2)cc(C(=O)NCc2cccc3cnn(C4CC4)c23)n1C [B.42] | 9.3 nM
Cc1c(S(=O)(=O)c2ccc3[nH]ncc3c2)cc(C(=O)NCc2c(Cl)cccc2Cl)n1C [B.84] | 0.18 nM
Cc1c(S(=O)(=O)c2cc(C(F)F)c3[nH]ncc3c2)cc(C(=O)NCc2cccc3cnn(C4CC4)c23)n1C [B.60] | 5.3 nM
Cc1c(S(=O)(=O)c2ccc3[nH]ncc3c2)cc(C(=O)NCc2c(F)ccc3nnn(C4CC4)c23)n1C [B.81] | < 0.15 nM
Cc1c(S(=O)(=O)c2ccc3[nH]ncc3c2)cc(C(=O)NCc2ccc(=O)[nH]c2)n1C [B.104] | 27 nM
Cc1c(S(=O)(=O)c2ccc3[nH]ncc3c2)cc(C(=O)NCc2cn(C)c(=O)cn2)n1C [B.156] | 6 nM
Cc1c(S(=O)(=O)c2ccc3[nH]ncc3c2)cc(C(=O)NCc2c[nH]c(=O)c3cccnc23)n1C [B.159] | 0.43 nM
Cc1c(S(=O)(=O)c2ccc3[nH]ncc3c2)cc(C(=O)NCc2cncnc2N2CCC(F)(F)C2)n1C [B.40] | 0.22 nM
Cc1c(S(=O)(=O)c2ccc3[nH]ncc3c2)cc(C(=O)NCc2cccc(OCC(F)(F)F)c2)n1C [B.77] | 2.9 nM
Cc1c(S(=O)(=O)c2ccc3[nH]ncc3c2)cc(C(=O)NCc2cccn3ncnc23)n1C [B.148] | 7.4 nM
Cc1c(S(=O)(=O)c2ccc3c(c2)c(O)nn3C)cc(C(=O)NCc2c(F)ccc3cnn(C4CC4)c23)n1C [B.111] | 142 nM
Cc1c(S(=O)(=O)c2cccc(C#N)c2)cc(C(=O)NCc2cccc3ncn(C4CC4)c23)n1C [B.3] | 5.3 nM

SMILES | IC50
Cc1c(S(=O)(=O)c2ccc3[nH]ncc3c2)cc(C(=O)NCc2ccc3ncnn3c2)n1C [B.149] | 18 nM
Cc1c(S(=O)(=O)c2ccc3[nH]nc(F)c3c2)cc(C(=O)NCc2c[nH]c(=O)c3cccnc23)n1C [B.175] | 3.3 nM
Cc1c(S(=O)(=O)c2ccc3[nH]ncc3c2)cc(C(=O)NCc2cccc3ncn(C4CC4)c23)n1C [B.1] | 0.38 nM
Cc1c(S(=O)(=O)c2ccc3[nH]ncc3c2)cc(C(=O)NCc2[nH]c(=O)ccc2Cl)n1C [B.190] | 3.3 nM
CCn1nccc1CNC(=O)c1cc(S(=O)(=O)c2ccc3[nH]ncc3c2)c(C)n1C [B.166] | 0.95 nM
Cc1cc[nH]c(=O)c1CNC(=O)c1cc(S(=O)(=O)c2ccc3[nH]ncc3c2)c(C)n1C [B.116] | 4.6 nM
Cc1c(S(=O)(=O)c2ccc3[nH]ncc3c2)cc(C(=O)NCc2c(Cl)cnn2C)n1C [B.142] | 1.4 nM
Cc1c(S(=O)(=O)c2ccc3[nH]ncc3c2)cc(C(=O)NCc2cc(F)cc3cnn(C)c23)n1C [B.96] | 1 nM
Cc1c(S(=O)(=O)c2cc(F)c3[nH]ncc3c2)cc(C(=O)NCc2ncccc2F)n1C [B.58] | 2.3 nM
Cc1c(S(=O)(=O)c2cccc(C#N)c2)cc(C(=O)NCc2c(F)ccc3cnn(C)c23)n1C [B.2] | 0.61 nM
Cc1c(S(=O)(=O)c2ccc3[nH]nc(F)c3c2)cc(C(=O)NCc2cncnc2N2CCC(F)(F)C2)n1C [B.38] | 0.56 nM
COCc1cc(S(=O)(=O)c2cc(C(=O)NCc3cccc4cnn(C5CC5)c34)n(C)c2C)cc2cn[nH]c12 [B.93] | 68 nM
Cc1c(S(=O)(=O)c2ccc3[nH]ncc3c2)cc(C(=O)NCc2ccc(=O)n(C)c2)n1C [B.177] | 138 nM
Cc1c(S(=O)(=O)c2ccc3[nH]ncc3c2)cc(C(=O)N[C@H]2Cc3ccccc32)n1C (single isomer, unassigned) [B.171] | 2.7 nM
Cc1c(S(=O)(=O)c2ccc3[nH]ncc3c2)cc(C(=O)NCc2ncccc2C(F)(F)F)n1C [B.83] | 5.3 nM
Cc1c(S(=O)(=O)c2ccc3[nH]ncc3c2)cc(C(=O)NCc2cccnc2N2CCC(F)(F)C2)n1C [B.20] | 0.75 nM
Cc1c(S(=O)(=O)c2ccc3[nH]ncc3c2)cc(C(=O)NCc2cccc3nnn(C)c23)n1C [B.34] | 0.2 nM
Cc1c(S(=O)(=O)c2cc(Cl)c3[nH]ncc3c2)cc(C(=O)NCc2c(F)ccc3cnn(C4CC4)c23)n1C [B.79] | 0.17 nM

Source: US20260226034A1 (The Rockefeller University, priority 2023, published 2026)
